Results as given in article PMC5428509, “Irreversible inhibition of BTK kinase by a novel highly selective inhibitor CHMFL-BTK-11 suppresses inflammatory response in rheumatoid arthritis model” (Scientific Reports, 2017).

Tests used:
Assay in all cases: biochemical
Parameters in all cases: KinomeScan competition binding panel (DiscoveRx), percent of control at 1 uM
Details in all cases: read-out: Percent Control
ASK1 = target: T1, ASK1 (Homo sapiens, UniProt Q99683)
T1 construct: gene MAP3K5
Method in brief: (§1)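 KinomeScan technology used to profile binding across a panel of 456 kinases and mutants.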

NEK11 = NEK11 (Homo sapiens, UniProt Q8NG66)
Method in brief: as §1

AKT1 = AKT1 (Homo sapiens, UniProt P31749)
Method in brief: as §1

RET = RET (Homo sapiens, UniProt P07949)
Method in brief: as §1

TAOK1 = TAOK1 (Homo sapiens, UniProt Q7L7X3)
Method in brief: as §1

LCK = LCK (Homo sapiens, UniProt P06239)
LCK, sequence (P06239 whole entry): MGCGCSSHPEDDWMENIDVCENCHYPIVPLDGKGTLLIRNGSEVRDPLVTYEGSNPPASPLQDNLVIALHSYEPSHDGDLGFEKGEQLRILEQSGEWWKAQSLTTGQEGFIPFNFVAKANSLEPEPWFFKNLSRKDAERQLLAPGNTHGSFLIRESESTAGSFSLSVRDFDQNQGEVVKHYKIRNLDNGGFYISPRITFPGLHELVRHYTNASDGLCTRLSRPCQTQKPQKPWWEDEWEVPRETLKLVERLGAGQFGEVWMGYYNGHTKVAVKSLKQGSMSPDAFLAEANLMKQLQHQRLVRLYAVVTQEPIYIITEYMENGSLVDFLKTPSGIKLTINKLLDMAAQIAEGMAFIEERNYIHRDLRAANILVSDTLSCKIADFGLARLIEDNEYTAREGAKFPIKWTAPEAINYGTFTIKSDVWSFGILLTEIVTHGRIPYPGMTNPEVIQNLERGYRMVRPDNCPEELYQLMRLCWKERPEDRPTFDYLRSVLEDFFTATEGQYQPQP
Method in brief: as §1

CDKL1 = CDKL1 (Homo sapiens, UniProt Q00532)
CDKL1, sequence (Q00532 whole entry): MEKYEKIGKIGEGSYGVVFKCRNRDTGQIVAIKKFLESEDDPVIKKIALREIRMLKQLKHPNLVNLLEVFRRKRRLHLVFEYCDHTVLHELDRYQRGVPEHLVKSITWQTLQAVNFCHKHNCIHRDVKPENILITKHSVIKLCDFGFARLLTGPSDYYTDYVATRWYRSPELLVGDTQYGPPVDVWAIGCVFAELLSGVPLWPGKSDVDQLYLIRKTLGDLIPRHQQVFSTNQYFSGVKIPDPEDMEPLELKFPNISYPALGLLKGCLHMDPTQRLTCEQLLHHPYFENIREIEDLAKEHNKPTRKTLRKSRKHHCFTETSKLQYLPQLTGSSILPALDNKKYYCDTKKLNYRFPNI
Method in brief: as §1

IRAK3 = IRAK3 (Homo sapiens, UniProt Q9Y616)
Method in brief: as §1

MST1R = MST1R (Homo sapiens, UniProt Q04912)
MST1R, sequence (Q04912 whole entry): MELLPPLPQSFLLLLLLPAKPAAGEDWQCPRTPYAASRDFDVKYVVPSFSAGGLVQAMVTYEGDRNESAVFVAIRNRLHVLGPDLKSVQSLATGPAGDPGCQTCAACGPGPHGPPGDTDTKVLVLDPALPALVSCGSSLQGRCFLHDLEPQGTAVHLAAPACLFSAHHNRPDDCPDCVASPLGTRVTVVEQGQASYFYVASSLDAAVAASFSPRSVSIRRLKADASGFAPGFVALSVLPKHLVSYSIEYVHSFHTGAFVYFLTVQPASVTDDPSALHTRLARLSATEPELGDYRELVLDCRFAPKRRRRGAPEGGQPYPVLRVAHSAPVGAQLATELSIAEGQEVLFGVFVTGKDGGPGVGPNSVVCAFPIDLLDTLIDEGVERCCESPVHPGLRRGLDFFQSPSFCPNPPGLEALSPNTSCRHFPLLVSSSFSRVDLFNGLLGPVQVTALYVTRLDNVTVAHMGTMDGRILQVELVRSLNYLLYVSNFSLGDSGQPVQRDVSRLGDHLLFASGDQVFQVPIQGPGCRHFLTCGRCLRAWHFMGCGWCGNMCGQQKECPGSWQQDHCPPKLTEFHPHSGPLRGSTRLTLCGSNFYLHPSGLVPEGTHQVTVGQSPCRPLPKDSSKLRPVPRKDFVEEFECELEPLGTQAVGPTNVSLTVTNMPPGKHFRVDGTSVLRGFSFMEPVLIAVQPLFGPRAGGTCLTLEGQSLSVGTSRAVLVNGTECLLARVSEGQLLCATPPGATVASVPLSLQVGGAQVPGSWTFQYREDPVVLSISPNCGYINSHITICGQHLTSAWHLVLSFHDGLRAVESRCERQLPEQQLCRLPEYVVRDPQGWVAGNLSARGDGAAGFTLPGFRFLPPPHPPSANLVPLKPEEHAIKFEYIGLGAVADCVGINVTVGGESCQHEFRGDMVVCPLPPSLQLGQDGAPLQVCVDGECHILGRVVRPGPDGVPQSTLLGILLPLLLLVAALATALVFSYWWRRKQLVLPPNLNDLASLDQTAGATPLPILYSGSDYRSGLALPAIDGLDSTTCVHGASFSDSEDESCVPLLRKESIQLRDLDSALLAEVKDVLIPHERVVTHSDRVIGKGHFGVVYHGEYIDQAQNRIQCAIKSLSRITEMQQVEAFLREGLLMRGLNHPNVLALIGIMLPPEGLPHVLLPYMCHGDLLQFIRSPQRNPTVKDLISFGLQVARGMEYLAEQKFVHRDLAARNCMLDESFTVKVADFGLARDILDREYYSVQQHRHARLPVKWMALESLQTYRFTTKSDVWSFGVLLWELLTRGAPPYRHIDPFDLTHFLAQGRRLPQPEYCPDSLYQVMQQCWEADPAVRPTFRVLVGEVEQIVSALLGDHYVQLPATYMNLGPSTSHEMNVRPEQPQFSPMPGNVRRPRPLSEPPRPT
Method in brief: as §1

CDK4-cyclinD3 = target: T2, CDK4-cyclinD3 (Homo sapiens, UniProt P11802)
T2 construct: cyclinD3
T2 sequence (P11802 whole entry): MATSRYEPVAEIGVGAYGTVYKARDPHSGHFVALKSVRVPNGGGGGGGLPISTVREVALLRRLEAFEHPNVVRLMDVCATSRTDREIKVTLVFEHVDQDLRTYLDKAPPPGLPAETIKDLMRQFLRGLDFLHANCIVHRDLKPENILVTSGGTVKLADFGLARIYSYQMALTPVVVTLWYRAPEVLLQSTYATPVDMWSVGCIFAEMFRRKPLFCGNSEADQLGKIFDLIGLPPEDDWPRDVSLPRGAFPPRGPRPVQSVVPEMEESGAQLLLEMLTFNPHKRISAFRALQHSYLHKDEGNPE
T2 sequence (P30281 whole entry partner): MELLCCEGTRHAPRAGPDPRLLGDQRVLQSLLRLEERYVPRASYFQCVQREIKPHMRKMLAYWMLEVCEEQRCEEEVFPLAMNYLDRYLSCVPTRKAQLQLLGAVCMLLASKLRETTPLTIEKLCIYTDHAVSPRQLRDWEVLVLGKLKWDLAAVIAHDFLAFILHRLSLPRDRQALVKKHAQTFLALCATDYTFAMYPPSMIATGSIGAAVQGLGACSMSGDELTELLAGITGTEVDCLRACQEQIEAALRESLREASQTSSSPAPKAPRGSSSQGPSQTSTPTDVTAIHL
Method in brief: as §1

INSRR = INSRR (Homo sapiens, UniProt P14616)
INSRR, sequence (P14616 whole entry): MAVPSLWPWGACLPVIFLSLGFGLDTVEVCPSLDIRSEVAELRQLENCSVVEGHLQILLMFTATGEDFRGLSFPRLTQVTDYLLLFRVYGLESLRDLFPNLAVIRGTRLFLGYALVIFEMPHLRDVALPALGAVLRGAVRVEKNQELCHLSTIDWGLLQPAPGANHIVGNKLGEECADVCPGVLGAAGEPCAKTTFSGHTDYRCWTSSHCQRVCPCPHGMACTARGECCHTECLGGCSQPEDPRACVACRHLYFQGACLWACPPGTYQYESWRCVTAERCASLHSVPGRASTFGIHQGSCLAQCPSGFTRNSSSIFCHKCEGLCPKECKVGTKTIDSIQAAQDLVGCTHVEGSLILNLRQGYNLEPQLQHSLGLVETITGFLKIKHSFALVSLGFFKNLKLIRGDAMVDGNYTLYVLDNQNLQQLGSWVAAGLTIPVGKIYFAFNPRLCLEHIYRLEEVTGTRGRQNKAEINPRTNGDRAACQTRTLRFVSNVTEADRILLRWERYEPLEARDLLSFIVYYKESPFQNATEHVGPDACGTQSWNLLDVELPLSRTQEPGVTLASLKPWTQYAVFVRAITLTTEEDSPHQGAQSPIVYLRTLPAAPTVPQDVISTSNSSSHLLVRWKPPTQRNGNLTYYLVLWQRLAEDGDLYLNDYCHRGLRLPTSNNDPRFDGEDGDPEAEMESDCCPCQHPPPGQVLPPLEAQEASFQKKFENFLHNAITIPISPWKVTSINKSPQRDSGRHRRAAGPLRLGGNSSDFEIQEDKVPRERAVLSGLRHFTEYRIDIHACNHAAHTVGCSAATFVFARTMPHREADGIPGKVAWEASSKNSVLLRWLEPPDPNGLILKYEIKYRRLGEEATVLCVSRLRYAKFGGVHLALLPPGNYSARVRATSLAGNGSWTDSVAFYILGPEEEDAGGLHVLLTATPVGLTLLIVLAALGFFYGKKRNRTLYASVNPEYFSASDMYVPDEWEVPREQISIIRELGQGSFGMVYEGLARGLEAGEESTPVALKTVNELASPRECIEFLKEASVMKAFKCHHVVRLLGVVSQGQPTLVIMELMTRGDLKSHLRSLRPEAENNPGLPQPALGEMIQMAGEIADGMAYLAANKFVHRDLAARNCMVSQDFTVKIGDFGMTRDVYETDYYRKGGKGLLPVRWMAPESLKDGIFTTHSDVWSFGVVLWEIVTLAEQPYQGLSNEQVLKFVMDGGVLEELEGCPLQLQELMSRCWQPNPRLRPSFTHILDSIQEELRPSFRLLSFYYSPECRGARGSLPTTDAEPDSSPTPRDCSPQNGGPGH
Method in brief: as §1

FAK = target: T3, FAK (Homo sapiens, UniProt Q05397)
T3 construct: gene PTK2
Method in brief: as §1

DCAMKL3 = target: T4, DCAMKL3 (Homo sapiens, UniProt Q9C098)
T4 construct: gene DCLK3
Method in brief: as §1

ARK5 = target: T5, ARK5 (Homo sapiens, UniProt O60285)
T5 construct: gene NUAK1
Method in brief: as §1

PAK4 = PAK4 (Homo sapiens, UniProt O96013)
PAK4, sequence (O96013 whole entry): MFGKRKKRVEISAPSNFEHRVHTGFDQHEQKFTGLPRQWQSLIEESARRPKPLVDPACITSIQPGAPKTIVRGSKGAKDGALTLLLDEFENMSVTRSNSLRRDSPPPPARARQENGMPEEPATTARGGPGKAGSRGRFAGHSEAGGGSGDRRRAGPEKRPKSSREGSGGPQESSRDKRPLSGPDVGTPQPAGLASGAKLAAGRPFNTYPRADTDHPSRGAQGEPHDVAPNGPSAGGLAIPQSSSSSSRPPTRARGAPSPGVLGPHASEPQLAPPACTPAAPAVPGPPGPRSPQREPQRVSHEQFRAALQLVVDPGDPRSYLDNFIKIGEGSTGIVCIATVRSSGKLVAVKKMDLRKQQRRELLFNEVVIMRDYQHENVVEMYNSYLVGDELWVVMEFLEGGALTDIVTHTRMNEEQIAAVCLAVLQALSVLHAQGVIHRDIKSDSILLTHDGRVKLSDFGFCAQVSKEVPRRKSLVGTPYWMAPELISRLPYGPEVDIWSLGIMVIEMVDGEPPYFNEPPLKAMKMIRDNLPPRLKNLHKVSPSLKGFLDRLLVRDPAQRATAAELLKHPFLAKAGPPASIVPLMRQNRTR
Method in brief: as §1

EGFR(L747-T751del,Sins) = EGFR(L747-T751del,Sins) (Homo sapiens, UniProt P00533, DEL747-750/T751S)
Method in brief: as §1

PRKCH = PRKCH (Homo sapiens, UniProt P24723)
Method in brief: as §1

MEK5 = target: T6, MEK5 (Homo sapiens, UniProt Q13163)
T6 construct: gene MAP2K5
Method in brief: as §1

PIK3CA(H1047Y) = PIK3CA(H1047Y) (Homo sapiens, UniProt P42336, H1047Y)
Method in brief: as §1

MST1 = target: T7, MST1 (Homo sapiens, UniProt Q13043)
T7 construct: gene STK4
Method in brief: as §1

NEK7 = NEK7 (Homo sapiens, UniProt Q8TDX7)
NEK7, sequence (Q8TDX7 whole entry): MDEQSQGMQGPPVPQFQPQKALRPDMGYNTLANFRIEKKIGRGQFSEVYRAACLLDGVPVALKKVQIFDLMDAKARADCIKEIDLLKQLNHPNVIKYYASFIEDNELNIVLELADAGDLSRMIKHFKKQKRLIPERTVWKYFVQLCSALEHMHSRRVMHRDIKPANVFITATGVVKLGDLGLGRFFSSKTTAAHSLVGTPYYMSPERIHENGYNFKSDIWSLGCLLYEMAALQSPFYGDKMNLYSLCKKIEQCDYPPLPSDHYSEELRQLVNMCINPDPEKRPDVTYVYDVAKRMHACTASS
Method in brief: as §1

PRKCD = PRKCD (Homo sapiens, UniProt Q05655)
Method in brief: as §1

PIK3C2B = PIK3C2B (Homo sapiens, UniProt O00750)
Method in brief: as §1

CSF1R = CSF1R (Homo sapiens, UniProt P07333)
Method in brief: as §1

ACVR2B = ACVR2B (Homo sapiens, UniProt Q13705)
Method in brief: as §1

Question: Which results are given for `C=CC(=O)Nc1cc(-n2c(=O)ccc3cnc4ccc(-n5cccn5)cc4c32)ccc1C` [CHMFL-BTK-11]?
Answer: remaining binding at 1 µM (ASK1): 90%; remaining binding at 1 µM (NEK11): 96%; remaining binding at 1 µM (AKT1): 96%; remaining binding at 1 µM (RET): 100%; remaining binding at 1 µM (TAOK1): 100%; remaining binding at 1 µM (LCK): 100%; remaining binding at 1 µM (CDKL1): 93%; remaining binding at 1 µM (IRAK3): 98%; remaining binding at 1 µM (MST1R): 98%; remaining binding at 1 µM (CDK4-cyclinD3): 100%; remaining binding at 1 µM (INSRR): 100%; remaining binding at 1 µM (FAK): 100%; remaining binding at 1 µM (DCAMKL3): 88%; remaining binding at 1 µM (ARK5): 100%; remaining binding at 1 µM (PAK4): 95%; remaining binding at 1 µM (EGFR(L747-T751del,Sins)): 77%; remaining binding at 1 µM (PRKCH): 84%; remaining binding at 1 µM (MEK5): 80%; remaining binding at 1 µM (PIK3CA(H1047Y)): 82%; remaining binding at 1 µM (MST1): 100%; remaining binding at 1 µM (NEK7): 100%; remaining binding at 1 µM (PRKCD): 86%; remaining binding at 1 µM (PIK3C2B): 100%; remaining binding at 1 µM (CSF1R): 91%; remaining binding at 1 µM (ACVR2B): 95%
